Measured values published in ChEMBL document CHEMBL4507291 (2021).

Tests used:
[1] = biological target: Phosphatidylinositol 4,5-bisphosphate 3-kinase catalytic subunit alpha isoform (Homo sapiens) (UniProt P42336)
[2] = biological target: T1, Tyrosine-protein kinase TXK (Homo sapiens) (UniProt P42681)
T1 sequence (whole entry): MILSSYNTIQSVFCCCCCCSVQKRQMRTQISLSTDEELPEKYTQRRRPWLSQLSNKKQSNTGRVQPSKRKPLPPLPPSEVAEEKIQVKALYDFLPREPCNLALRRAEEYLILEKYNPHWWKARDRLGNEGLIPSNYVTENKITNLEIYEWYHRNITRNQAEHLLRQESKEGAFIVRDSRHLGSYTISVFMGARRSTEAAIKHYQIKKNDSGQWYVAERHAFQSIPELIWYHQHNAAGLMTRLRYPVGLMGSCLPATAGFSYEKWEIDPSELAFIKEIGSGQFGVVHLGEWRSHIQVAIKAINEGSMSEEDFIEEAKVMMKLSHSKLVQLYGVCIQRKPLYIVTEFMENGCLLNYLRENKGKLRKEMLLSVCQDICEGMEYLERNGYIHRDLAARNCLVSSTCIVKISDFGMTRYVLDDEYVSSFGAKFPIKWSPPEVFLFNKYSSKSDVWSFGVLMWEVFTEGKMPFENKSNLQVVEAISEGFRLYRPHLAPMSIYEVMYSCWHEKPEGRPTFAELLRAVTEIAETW

[3] = biological target: Interferon-induced, double-stranded RNA-activated protein kinase (Homo sapiens) (UniProt P19525)
[4] = biological target: Serine/threonine-protein kinase BRSK2 (Homo sapiens) (UniProt Q8IWQ3)
[5] = biological target: Tyrosine-protein kinase JAK1 (Homo sapiens) (UniProt P23458)
[6] = biological target: Serine/threonine-protein kinase WNK1 (Homo sapiens) (UniProt Q9H4A3)
[7] = biological target: T2, Beta-adrenergic receptor kinase 1 (Homo sapiens) (UniProt P25098)
T2 sequence (whole entry): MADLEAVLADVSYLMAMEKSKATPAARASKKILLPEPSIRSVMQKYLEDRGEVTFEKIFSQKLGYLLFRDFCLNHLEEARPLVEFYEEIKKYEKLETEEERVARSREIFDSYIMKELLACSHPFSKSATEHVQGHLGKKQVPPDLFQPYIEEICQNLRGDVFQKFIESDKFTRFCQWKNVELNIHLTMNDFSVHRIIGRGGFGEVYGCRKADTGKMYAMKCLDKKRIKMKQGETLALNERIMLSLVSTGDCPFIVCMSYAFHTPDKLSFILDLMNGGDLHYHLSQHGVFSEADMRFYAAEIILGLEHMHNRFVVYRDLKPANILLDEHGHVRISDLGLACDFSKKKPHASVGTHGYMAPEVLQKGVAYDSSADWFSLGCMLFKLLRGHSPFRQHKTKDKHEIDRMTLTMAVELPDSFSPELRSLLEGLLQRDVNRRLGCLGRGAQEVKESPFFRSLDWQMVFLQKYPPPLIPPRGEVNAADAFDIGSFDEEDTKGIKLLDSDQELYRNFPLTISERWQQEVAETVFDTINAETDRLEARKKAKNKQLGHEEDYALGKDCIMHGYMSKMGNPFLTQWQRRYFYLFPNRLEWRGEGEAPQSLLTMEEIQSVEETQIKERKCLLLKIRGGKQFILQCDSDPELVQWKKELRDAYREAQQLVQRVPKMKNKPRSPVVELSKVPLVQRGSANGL

[8] = biological target: Phosphorylase b kinase gamma catalytic chain, skeletal muscle/heart isoform (Homo sapiens) (UniProt Q16816)
[9] = biological target: T3, Inhibitor of nuclear factor kappa-B kinase subunit alpha (Homo sapiens) (UniProt O15111)
T3 sequence (whole entry): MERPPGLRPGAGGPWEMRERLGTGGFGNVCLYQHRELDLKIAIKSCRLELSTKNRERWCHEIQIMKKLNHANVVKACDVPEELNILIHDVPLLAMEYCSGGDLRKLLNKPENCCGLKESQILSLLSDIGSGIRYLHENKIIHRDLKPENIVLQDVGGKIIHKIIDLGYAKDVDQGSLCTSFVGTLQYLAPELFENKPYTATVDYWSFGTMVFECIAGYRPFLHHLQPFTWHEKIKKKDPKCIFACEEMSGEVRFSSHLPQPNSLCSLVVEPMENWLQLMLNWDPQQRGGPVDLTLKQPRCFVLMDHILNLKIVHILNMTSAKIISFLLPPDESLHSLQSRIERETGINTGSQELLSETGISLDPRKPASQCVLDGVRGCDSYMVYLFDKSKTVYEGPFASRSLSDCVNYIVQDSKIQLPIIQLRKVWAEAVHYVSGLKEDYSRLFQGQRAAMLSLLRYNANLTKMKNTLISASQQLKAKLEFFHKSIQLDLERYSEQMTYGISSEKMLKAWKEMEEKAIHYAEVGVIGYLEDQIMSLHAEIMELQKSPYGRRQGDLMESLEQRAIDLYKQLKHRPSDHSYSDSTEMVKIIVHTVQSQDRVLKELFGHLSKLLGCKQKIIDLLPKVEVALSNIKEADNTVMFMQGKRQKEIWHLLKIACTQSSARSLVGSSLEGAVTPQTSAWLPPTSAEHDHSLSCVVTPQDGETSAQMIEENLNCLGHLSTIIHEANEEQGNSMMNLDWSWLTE

[10] = biological target: Mitogen-activated protein kinase 3 (Homo sapiens) (UniProt P27361)
[11] = tested on: eIF-2-alpha kinase GCN2 (Homo sapiens), Q9P2K8 [S808G]
[12] = biological target: Dual specificity protein kinase CLK2 (Homo sapiens) (UniProt P49760)
[13] = Compound concentration 1000.0 nM
[14] = Compound concentration 100.0 nM

Measured: residual activity

Phosphorylase b kinase gamma catalytic chain, skeletal muscle/heart isoform (Homo sapiens), sequence (Q16816 whole entry, looked up, canonical isoform): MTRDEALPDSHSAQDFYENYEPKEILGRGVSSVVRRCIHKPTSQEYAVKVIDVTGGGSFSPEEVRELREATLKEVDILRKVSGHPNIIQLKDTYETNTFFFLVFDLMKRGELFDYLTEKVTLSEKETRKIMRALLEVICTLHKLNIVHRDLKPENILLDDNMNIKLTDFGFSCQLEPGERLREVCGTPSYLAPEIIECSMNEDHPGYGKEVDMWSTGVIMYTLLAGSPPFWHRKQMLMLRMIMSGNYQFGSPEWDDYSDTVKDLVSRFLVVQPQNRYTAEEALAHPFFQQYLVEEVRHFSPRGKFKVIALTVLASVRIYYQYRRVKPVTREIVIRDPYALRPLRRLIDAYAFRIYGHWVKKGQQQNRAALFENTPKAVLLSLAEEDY
Tyrosine-protein kinase JAK1 (Homo sapiens), sequence (P23458 whole entry): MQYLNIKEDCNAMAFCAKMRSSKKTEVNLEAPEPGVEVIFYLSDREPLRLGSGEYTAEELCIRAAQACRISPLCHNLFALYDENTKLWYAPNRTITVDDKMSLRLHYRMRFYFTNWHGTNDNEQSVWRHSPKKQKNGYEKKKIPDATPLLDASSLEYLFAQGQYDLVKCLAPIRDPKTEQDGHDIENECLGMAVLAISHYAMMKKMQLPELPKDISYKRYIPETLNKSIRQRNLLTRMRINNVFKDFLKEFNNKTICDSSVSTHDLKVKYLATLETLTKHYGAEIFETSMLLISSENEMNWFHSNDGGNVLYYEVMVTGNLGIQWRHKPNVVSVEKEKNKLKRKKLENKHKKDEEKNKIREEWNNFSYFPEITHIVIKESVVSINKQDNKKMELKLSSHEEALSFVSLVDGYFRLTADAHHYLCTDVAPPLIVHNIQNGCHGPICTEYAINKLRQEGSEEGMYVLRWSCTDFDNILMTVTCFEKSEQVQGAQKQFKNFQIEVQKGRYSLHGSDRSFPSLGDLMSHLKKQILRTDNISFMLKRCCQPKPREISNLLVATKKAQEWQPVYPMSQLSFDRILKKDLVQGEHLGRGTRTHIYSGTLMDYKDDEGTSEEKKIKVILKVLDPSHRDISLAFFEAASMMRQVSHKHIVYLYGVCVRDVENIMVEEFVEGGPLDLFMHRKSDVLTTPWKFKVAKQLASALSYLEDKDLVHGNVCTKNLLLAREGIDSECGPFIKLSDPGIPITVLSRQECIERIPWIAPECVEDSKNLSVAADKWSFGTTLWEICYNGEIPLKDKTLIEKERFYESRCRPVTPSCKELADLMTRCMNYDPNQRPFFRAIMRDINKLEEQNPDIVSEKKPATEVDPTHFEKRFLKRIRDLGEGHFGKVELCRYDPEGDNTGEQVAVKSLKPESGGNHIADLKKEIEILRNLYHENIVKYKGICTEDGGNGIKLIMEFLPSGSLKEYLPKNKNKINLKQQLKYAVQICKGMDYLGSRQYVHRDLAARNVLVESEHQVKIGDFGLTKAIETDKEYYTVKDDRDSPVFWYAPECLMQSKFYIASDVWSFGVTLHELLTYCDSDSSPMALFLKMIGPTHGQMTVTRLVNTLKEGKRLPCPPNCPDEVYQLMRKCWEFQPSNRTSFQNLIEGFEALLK
Serine/threonine-protein kinase BRSK2 (Homo sapiens), sequence (Q8IWQ3 whole entry): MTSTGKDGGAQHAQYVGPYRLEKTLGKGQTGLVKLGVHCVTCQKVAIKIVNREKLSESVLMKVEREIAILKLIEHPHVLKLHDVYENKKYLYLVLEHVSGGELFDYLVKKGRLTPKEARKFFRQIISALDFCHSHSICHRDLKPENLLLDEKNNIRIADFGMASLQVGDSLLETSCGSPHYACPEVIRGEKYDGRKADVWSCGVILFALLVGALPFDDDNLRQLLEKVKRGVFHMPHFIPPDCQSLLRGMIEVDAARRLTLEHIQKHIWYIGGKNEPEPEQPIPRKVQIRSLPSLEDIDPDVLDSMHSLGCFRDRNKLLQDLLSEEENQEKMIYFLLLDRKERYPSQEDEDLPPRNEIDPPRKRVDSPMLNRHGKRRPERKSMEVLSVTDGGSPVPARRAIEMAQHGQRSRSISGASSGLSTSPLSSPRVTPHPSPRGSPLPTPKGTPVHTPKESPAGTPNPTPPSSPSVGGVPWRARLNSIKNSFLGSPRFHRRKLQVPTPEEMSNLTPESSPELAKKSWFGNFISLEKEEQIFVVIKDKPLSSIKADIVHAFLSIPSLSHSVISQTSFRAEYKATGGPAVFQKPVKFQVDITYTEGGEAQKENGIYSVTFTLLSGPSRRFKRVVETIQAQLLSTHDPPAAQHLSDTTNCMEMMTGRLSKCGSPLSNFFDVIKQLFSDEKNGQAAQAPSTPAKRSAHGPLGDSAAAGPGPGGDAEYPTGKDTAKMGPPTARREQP
Phosphatidylinositol 4,5-bisphosphate 3-kinase catalytic subunit alpha isoform (Homo sapiens), sequence (P42336 whole entry, canonical isoform): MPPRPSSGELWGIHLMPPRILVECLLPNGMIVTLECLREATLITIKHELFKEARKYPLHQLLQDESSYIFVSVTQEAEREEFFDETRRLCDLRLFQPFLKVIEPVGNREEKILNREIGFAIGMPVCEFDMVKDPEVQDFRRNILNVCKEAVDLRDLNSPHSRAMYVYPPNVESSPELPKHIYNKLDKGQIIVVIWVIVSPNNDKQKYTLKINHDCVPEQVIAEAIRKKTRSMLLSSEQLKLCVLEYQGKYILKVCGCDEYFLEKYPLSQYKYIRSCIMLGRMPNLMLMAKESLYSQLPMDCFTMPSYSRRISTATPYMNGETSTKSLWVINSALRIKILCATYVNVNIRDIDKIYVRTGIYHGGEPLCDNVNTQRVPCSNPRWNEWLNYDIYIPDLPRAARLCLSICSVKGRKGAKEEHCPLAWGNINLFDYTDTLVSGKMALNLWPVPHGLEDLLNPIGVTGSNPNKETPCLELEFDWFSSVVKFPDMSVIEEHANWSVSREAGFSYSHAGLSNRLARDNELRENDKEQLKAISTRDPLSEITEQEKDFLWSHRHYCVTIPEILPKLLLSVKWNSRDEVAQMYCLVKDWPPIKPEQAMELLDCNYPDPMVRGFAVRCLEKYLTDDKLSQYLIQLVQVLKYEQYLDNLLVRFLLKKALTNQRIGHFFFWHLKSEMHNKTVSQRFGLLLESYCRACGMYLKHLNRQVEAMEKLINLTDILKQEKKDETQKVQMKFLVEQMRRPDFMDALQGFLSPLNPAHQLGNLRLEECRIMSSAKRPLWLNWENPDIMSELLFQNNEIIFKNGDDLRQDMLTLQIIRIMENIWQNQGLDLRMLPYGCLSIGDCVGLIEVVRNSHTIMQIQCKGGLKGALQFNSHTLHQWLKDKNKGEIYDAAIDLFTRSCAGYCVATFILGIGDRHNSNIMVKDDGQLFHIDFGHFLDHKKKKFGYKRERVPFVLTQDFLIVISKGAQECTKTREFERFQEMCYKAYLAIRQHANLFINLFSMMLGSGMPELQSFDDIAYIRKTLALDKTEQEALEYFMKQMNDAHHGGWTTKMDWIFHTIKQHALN
Mitogen-activated protein kinase 3 (Homo sapiens), sequence (P27361 whole entry): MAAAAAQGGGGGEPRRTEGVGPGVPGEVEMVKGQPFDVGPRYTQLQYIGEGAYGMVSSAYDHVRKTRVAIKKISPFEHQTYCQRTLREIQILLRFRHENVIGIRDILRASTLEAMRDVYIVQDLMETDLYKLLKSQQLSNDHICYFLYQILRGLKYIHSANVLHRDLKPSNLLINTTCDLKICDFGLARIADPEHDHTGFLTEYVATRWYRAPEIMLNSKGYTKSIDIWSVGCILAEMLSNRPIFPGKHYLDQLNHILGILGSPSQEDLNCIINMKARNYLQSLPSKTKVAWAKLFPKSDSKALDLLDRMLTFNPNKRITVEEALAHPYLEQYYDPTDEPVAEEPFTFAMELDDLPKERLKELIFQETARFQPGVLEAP
Dual specificity protein kinase CLK2 (Homo sapiens), sequence (P49760 whole entry, looked up): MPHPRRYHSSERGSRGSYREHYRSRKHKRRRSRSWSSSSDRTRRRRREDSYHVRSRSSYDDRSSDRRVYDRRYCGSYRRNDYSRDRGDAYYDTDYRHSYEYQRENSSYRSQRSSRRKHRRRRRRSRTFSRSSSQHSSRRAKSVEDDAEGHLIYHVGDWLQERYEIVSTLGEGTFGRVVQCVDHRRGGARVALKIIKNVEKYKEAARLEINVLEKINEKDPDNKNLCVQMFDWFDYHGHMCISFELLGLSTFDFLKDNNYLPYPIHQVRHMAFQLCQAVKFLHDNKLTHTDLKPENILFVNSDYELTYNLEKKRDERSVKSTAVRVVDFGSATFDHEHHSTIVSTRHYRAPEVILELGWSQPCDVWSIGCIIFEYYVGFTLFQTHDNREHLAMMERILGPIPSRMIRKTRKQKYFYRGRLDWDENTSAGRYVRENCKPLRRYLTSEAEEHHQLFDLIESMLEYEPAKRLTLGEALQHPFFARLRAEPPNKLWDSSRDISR
Interferon-induced, double-stranded RNA-activated protein kinase (Homo sapiens), sequence (P19525 whole entry): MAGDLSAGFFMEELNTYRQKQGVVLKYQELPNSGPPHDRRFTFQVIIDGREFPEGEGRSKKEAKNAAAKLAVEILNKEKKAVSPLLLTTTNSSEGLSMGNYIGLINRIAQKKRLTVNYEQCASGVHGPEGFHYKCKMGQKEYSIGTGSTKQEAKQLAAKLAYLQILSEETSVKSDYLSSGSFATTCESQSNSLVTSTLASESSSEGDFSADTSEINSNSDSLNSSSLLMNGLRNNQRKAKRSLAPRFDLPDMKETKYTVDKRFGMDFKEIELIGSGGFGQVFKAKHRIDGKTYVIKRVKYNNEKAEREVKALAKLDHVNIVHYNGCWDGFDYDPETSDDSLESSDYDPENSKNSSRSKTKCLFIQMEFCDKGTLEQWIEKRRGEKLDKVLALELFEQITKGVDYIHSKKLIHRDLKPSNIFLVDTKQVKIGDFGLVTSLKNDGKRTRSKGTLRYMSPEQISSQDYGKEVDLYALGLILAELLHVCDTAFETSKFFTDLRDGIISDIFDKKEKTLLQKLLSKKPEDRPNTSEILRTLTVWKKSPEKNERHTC

C[C@@H]1CN(c2cc(-c3nn(C)c4ccc(OC5(C)CC5)cc34)ncn2)C[C@H](C)O1 [MLi-2-NC]
inactive: [1]; [13] 100% | [2]; [13] 100% | [3]; [13] 100% | [4]; [13] 100% | [5]; [13] 84% | [6]; [13] 82% | [7]; [13] 68% | [8]; [13] 90% | [9]; [13] 75% | [10]; [13] 100% | [11]; [13] 100% | [12]; [13] 81%

C[C@@H]1CN(c2cc(-c3n[nH]c4ccc(OC5(C)CC5)cc34)ncn2)C[C@H](C)O1 [MLi-2]
inactive: [1]; [14] 100% | [2]; [14] 80% | [3]; [14] 100% | [4]; [14] 100% | [5]; [14] 79% | [6]; [14] 89% | [7]; [14] 86% | [8]; [14] 100% | [9]; [14] 76% | [10]; [14] 87% | [11]; [14] 81% | [12]; [14] 85%
